Experimental data from patent publication US4024224A, “14-Aminodaunomycins, their preparation and use” (priority 1974, dated 1977).
≈ marks a conversion by molar mass, not a printed value. Where two headings read alike, the source gives them in different places.

Tests used:
[1] = Proliferation of uninfected mouse embryo fibroblasts (MEF); format: cell-based; details: mouse, mouse embryo fibroblasts
Description: (§1) Mouse embryo fibroblasts (MEF) were plated on 35 mm. Falcon plastic dishes and infected 24 hours later with Moloney Sarcoma Virus (MSV) in the presence of DEAE-dextran (25 μg./ml.). The samples were then treated for 3 days with different concentrations of the compounds of the invention. The number of foci of transformed cells was microscopically determined 5 days after the infection. Uninfected MEF were similarly treated and at the end of the experiment, the cells were counted in an haemocytometer. In all the experiments, the cells were incubated in a 5% CO2 incubator at 37° C.
(§2) For use in these tests the compounds were dissolved in distilled water or in 5% ethyl alcohol in distilled water and then diluted in culture medium.

[2] = test system: Mouse Embryo Fibroblasts; test: as above; format: cell-based; details: Mus musculus, Fibroblast, 72 h, read-out: MEF No. of cells
Description: as §1, §2

[3] = test system: Moloney Sarcoma Virus (MSV); test: Inhibition of MSV-M foci formation in mouse embryo fibroblasts; format: cell-based; details: Fibroblast, 120 h; for IC50: read-out: MSV-M foci ID 50 (Inhibiting Dose 50%)
Description: as §1, §2
The results of these tests are reported in Table I in terms of ID50 values (Inhibiting Dose 50%), calculated on dose-effects lines.

[4] = Antitumor activity and toxicity on ascites Sarcoma 180 in CD 1 mice; format: in vivo; details: mouse, in vivo, ip, read-out: % Toxic Deaths
Description: (§3) The antitumor activity of the compounds of the invention was tested on ascites Sarcoma 180.
(§4) Three month old CD 1 mice were used. Sarcoma 180 ascites cells were inoculated intraperitoneally (10^6 cells/mouse). For use in these tests, the compounds were dissolved in distilled water or in 5% ethyl alcohol in distilled water, then diluted with Ringers solution and administered i.p. 1 day after the tumor implant (10 ml./kg. of body weight).
(§5) The toxicity of the test compounds was evaluated by macroscopic autoptic examination mainly in terms of reduction in spleen size. The comparison of the effectiveness of the test compounds is based on the maximum increase in median survival time, as compared to untreated controls, over the dose range used. The number of Long Term Survivors (LTS) refers to tumor-free mice at the end of the experiment (60 days). Solid Sarcoma 180 was implanted subcutaneously by trocar in the flank of CD 1 mice according to standard methods. The mice were treated i.v. for 5 consecutive days, starting 1 day after the tumor implant. On the 11th day the tumor volume was measured by means of a caliper and evaluated according to the formula (a^2 × b)/2, a and b being the minimum and the maximum diameters respectively.

[5] = test system: ascites Sarcoma 180; test: as above; format: in vivo; details: for % LTS: 60 days; for LTS (Long Term Survivors after 60 days): survivors/total; for Toxic Deaths: deaths/total
Description: as §3, §4, §5

[6] = test system: Solid Sarcoma 180; test: Antitumor activity and toxicity on solid Sarcoma 180 in CD 1 mice; format: in vivo; details: for Tumor Volume T/C %: 11th day; for Toxic Deaths: deaths/total
Description: as §5

[7] = 0.2 mg./kg. i.p. 1 day after tumor implant
[8] = 1 mg./kg. i.p. 1 day after tumor implant
[9] = 5 mg./kg. i.p. 1 day after tumor implant
[10] = 25 mg./kg. i.p. 1 day after tumor implant
[11] = 50 mg./kg. i.p. 1 day after tumor implant
[12] = 100 mg./kg. i.p. 1 day after tumor implant
[13] = 3 mg./kg. i.v. for 5 consecutive days
[14] = 4 mg./kg. i.v. for 5 consecutive days
[15] = 5 mg./kg. i.v. for 5 consecutive days

**Q.** For `COc1cccc2c1C(=O)c1c(O)c3c(c(O)c1C2=O)C[C@@](O)(C(=O)CN1CCOCC1)C[C@@H]3O[C@H]1C[C@H](N)[C@H](O)[C@H](C)O1` [14-(N-morpholino)-daunomycin], which IC50 at 72 h ([1]; calculated on dose-effects lines, uninfected MEF, 3 days treatment, read-out: MEF proliferation ID 50 (Inhibiting Dose 50%)) is on record?
**A.** The IC50 at 72 h was 0.5 µg/mL (≈ 0.816 µM).

**Q.** What about the activity at 0.0062 µg/mL ([2]; dose 0.0062 μg/ml, uninfected MEF, 3 days treatment) of the same molecule?
**A.** Its activity at 0.0062 µg/mL is 81%.

**Q.** What about the activity at 0.025 µg/mL ([2]; dose 0.0250 μg/ml, uninfected MEF, 3 days treatment) of the same molecule?
**A.** The activity at 0.025 µg/mL was 68%.

**Q.** What about the activity at 0.1 µg/mL ([2]; dose 0.1 μg/ml, uninfected MEF, 3 days treatment) of the same molecule?
**A.** Its activity at 0.1 µg/mL is 31%.

**Q.** And the activity at 0.4 µg/mL ([2]; dose 0.4 μg/ml, uninfected MEF, 3 days treatment)?
**A.** Its activity at 0.4 µg/mL is 21%.

**Q.** And the IC50 ([3]; calculated on dose-effects lines, 3 days treatment)?
**A.** Its IC50 is 0.032 µg/mL (≈ 0.0522 µM).

**Q.** What about the activity at 0.0062 µg/mL ([3]; dose 0.0062 μg/ml, 3 days treatment, foci counted 5 days after infection, read-out: MSV-M No. of foci) of the same molecule?
**A.** The activity at 0.0062 µg/mL was 78%.

**Q.** What about the activity at 0.025 µg/mL ([3]; dose 0.0250 μg/ml, 3 days treatment, foci counted 5 days after infection, read-out: MSV-M No. of foci) of the same molecule?
**A.** The activity at 0.025 µg/mL was 69%.

**Q.** What about the activity at 0.1 µg/mL ([3]; dose 0.1 μg/ml, 3 days treatment, foci counted 5 days after infection, read-out: MSV-M No. of foci) of the same molecule?
**A.** Its activity at 0.1 µg/mL is 17%.

**Q.** What about the activity at 0.4 µg/mL ([3]; dose 0.4 μg/ml, 3 days treatment, foci counted 5 days after infection, read-out: MSV-M No. of foci) of the same molecule?
**A.** Its activity at 0.4 µg/mL is 0%.

**Q.** And the mortality ([4]; 0.2 mg./kg. i.p.)?
**A.** Its mortality is 0%.

**Q.** And the mortality ([4]; 1 mg./kg. i.p.)?
**A.** Its mortality is 0%.

**Q.** What about the mortality ([4]; 5 mg./kg. i.p.) of the same molecule?
**A.** Its mortality is 0%.

**Q.** What about the mortality ([4]; 25 mg./kg. i.p.) of the same molecule?
**A.** Its mortality is 0%.

**Q.** And the mortality ([4]; 50 mg./kg. i.p.)?
**A.** The mortality was 14%.

**Q.** And the mortality ([4]; 100 mg./kg. i.p.)?
**A.** Its mortality is 85%.

**Q.** What about the “T/C (median survival time, % over untreated controls)” value [5, 7] of the same molecule?
**A.** The value was 103%.

**Q.** What about the “% LTS” value [5, 7] of the same molecule?
**A.** The value was 0%.

**Q.** What about the “LTS (Long Term Survivors after 60 days)” value [5, 7] of the same molecule?
**A.** Its value is 0/10.

**Q.** And the “Toxic Deaths” value ([5]; 0.2 mg./kg. i.p.)?
**A.** Its value is 0/10.

**Q.** What about the “T/C (median survival time, % over untreated controls)” value [5, 8] of the same molecule?
**A.** The value was 111%.

**Q.** And the “% LTS” value [5, 8]?
**A.** Its value is 0%.

**Q.** And the “LTS (Long Term Survivors after 60 days)” value [5, 8]?
**A.** Its value is 0/10.

**Q.** And the “Toxic Deaths” value ([5]; 1 mg./kg. i.p.)?
**A.** The value was 0/10.

**Q.** And the “T/C (median survival time, % over untreated controls)” value [5, 9]?
**A.** The value was 133%.

**Q.** And the “% LTS” value [5, 9]?
**A.** The value was 30%.

**Q.** What about the “LTS (Long Term Survivors after 60 days)” value [5, 9] of the same molecule?
**A.** Its value is 3/10.

**Q.** What about the “Toxic Deaths” value ([5]; 5 mg./kg. i.p.) of the same molecule?
**A.** The value was 0/10.

**Q.** And the “T/C (median survival time, % over untreated controls)” value [5, 10]?
**A.** The value was 223%.

**Q.** What about the “% LTS” value [5, 10] of the same molecule?
**A.** The value was 29%.

**Q.** What about the “LTS (Long Term Survivors after 60 days)” value [5, 10] of the same molecule?
**A.** The value was 5/17.

**Q.** And the “Toxic Deaths” value ([5]; 25 mg./kg. i.p.)?
**A.** The value was 0/17.

**Q.** And the “T/C (median survival time, % over untreated controls)” value [5, 11]?
**A.** Its value is 100%.

**Q.** And the “% LTS” value [5, 11]?
**A.** The value was 0%.

**Q.** And the “LTS (Long Term Survivors after 60 days)” value [5, 11]?
**A.** The value was 0/7.

**Q.** What about the “Toxic Deaths” value ([5]; 50 mg./kg. i.p.) of the same molecule?
**A.** The value was 1/7.

**Q.** And the “T/C (median survival time, % over untreated controls)” value [5, 12]?
**A.** The value was 50%.

**Q.** And the “% LTS” value [5, 12]?
**A.** Its value is 14%.

**Q.** And the “LTS (Long Term Survivors after 60 days)” value [5, 12]?
**A.** The value was 1/7.

**Q.** What about the “Toxic Deaths” value ([5]; 100 mg./kg. i.p.) of the same molecule?
**A.** The value was 6/7.

**Q.** And the “Tumor Volume T/C %” value [6, 13]?
**A.** Its value is 77%.

**Q.** What about the “Toxic Deaths” value [6, 13] of the same molecule?
**A.** Its value is 0/10.

**Q.** What about the “Tumor Volume T/C %” value [6, 14] of the same molecule?
**A.** The value was 64%.

**Q.** What about the “Toxic Deaths” value [6, 14] of the same molecule?
**A.** Its value is 0/10.

**Q.** And the “Tumor Volume T/C %” value [6, 15]?
**A.** The value was 69%.

**Q.** What about the “Toxic Deaths” value [6, 15] of the same molecule?
**A.** The value was 0/10.

**Q.** With `COc1cccc2c1C(=O)c1c(O)c3c(c(O)c1C2=O)C[C@@](O)(C(C)=O)C[C@@H]3O[C@H]1C[C@H](N)[C@H](O)[C@H](C)O1` [Daunomycin] as the molecule, how does the IC50 at 72 h [1] read?
**A.** The IC50 at 72 h was 0.0086 µg/mL (≈ 0.0163 µM).

**Q.** What about the activity at 0.0062 µg/mL [2] of the same molecule?
**A.** The activity at 0.0062 µg/mL was 55%.

**Q.** And the activity at 0.0125 µg/mL [2]?
**A.** Its activity at 0.0125 µg/mL is 45%.

**Q.** What about the activity at 0.025 µg/mL [2] of the same molecule?
**A.** The activity at 0.025 µg/mL was 22%.

**Q.** And the activity at 0.0062 µg/mL ([3]; read-out: MSV-M No. of foci)?
**A.** Its activity at 0.0062 µg/mL is 51%.

**Q.** And the activity at 0.0125 µg/mL ([3]; read-out: MSV-M No. of foci)?
**A.** The activity at 0.0125 µg/mL was 17%.

**Q.** What about the activity at 0.025 µg/mL ([3]; read-out: MSV-M No. of foci) of the same molecule?
**A.** The activity at 0.025 µg/mL was 0%.

**Q.** What about the IC50 [3] of the same molecule?
**A.** The IC50 was 0.006 µg/mL (≈ 0.0114 µM).

**Q.** What about the mortality ([4]; 0.2 mg./kg. i.p.) of the same molecule?
**A.** Its mortality is 0%.

**Q.** What about the mortality ([4]; 1 mg./kg. i.p.) of the same molecule?
**A.** The mortality was 0%.

**Q.** And the mortality ([4]; 5 mg./kg. i.p.)?
**A.** The mortality was 15%.

**Q.** What about the “T/C (median survival time, % over untreated controls)” value [5, 7] of the same molecule?
**A.** The value was 106%.

**Q.** And the “% LTS” value [5, 7]?
**A.** The value was 5%.

**Q.** What about the “LTS (Long Term Survivors after 60 days)” value [5, 7] of the same molecule?
**A.** The value was 1/20.

**Q.** And the “Toxic Deaths” value ([5]; 0.2 mg./kg. i.p.)?
**A.** The value was 0/20.

**Q.** What about the “T/C (median survival time, % over untreated controls)” value [5, 8] of the same molecule?
**A.** Its value is 193%.

**Q.** And the “% LTS” value [5, 8]?
**A.** The value was 45%.

**Q.** What about the “LTS (Long Term Survivors after 60 days)” value [5, 8] of the same molecule?
**A.** Its value is 9/20.

**Q.** What about the “Toxic Deaths” value ([5]; 1 mg./kg. i.p.) of the same molecule?
**A.** Its value is 0/20.

**Q.** And the “T/C (median survival time, % over untreated controls)” value [5, 9]?
**A.** The value was 173%.

**Q.** What about the “% LTS” value [5, 9] of the same molecule?
**A.** Its value is 15%.

**Q.** And the “LTS (Long Term Survivors after 60 days)” value [5, 9]?
**A.** The value was 3/20.

**Q.** What about the “Toxic Deaths” value ([5]; 5 mg./kg. i.p.) of the same molecule?
**A.** The value was 3/20.
